Results taken from patent publication US20160303108A1, “NOVEL DOSAGE FORM AND FORMULATION OF ABEDITEROL” (Almirall, S.A., priority 2012, published 2016).
Marks after values point to notes of the source that are not given here.

Key:
[1] = Measurement of the delivered dose (collection tube, Genuair inhaler, HPLC); format: physicochemical
Experimental: The measurement of the delivered dose is carried out based on Ph. Eur. Chapter 2.9.18 and USP <601> using “collection tube” apparatus (CT). For this, the Genuair® inhaler is fitted to the Collection Tube via an adapter, the dosage key of the Genuair® inhaler is pressed and released and then 2 L or 4 L of air are sucked through the inhaler and the Collection Tube (the inspiratory flow rate through the inhaler was approx. 65 L/min at a pressure drop of 4 KPa). Subsequently, the inhalation powder delivered to the Collection Tube is extracted with solvent and analyzed using High Performance Liquid chromatography equipment (HPLC).

[2] = test system: patients with stable moderate to severe chronic obstructive pulmonary disease (COPD); assay: Clinical phase IIa single-dose cross-over study in stable moderate to severe COPD (trough FEV1, safety, tolerability); format: in vivo, human; conditions: for Change from baseline in morning pre-dose (trough) FEV1 at Day 2: 23-24 h after administration
Source text: (§1) Clinical phase IIa study: A randomised, single dose, double-blind, double-dummy, 6 way complete cross-over, placebo and active comparator controlled, assesses the efficacy, safety and tolerability of single doses of abediterol administered once daily by inhalation compared to placebo and active comparator in patients with stable moderate to severe chronic obstructive pulmonary disease (COPD).
(§2) Methods: 63 patients (men and women aged ≧40 years) with a clinical diagnosis of stable moderate to severe COPD, as defined by the 2011 GOLD guideline, with no signs of an exacerbation within 6 weeks prior to the screening visit and with a FEV1 30-80% of the predicted normal values (according to Quanjer et al. 1993) were randomised to treatment sequences comprising a single-dose administration of abediterol (at a metered nominal dose of 0.625, 2.5, 5 and 10 micrograms in the Genuair® device), one administration of indacaterol (at a metered nominal dose of 150 micrograms once daily in the Onbrez Breezhaler® device) and placebo (administered in both Genuair® and Onbrez Breezhaler®). The washout period between each administration was at least 7 days. Lung function measurements included (by spirometry) trough FEV1. Trough FEV1 is defined as a main FEV1 value between 23 and 24 h after Investigational Medicinal Product (IMP) administration.

[3] = test system: persistent asthmatic patients; assay: Clinical phase IIa single-dose cross-over study in persistent asthma (FEV1, safety, tolerability); format: in vivo, human
Source text: as §1, with “persistent asthmatic patients.” for “patients with stable moderate to severe chronic obstructive pulmonary disease (COPD).”
(§3) Methods: 62 patients (Adult men and women aged 18-70 years) with a clinical diagnosis of persistent asthma, as defined by the 2011 GINA guideline, for at least 6 months prior to screening and with a FEV1 61-85% of the predicted normal values (according to Quanjer et al. 1993) were randomised to treatment sequences comprising a single-dose administration of abediterol (at metered nominal doses of 0.313, 0.625, 1.25 and 2.5 micrograms in the Genuair® device), one administration of salbutamol (at a metered nominal dose of 400 micrograms (100 micrograms×4 puffs) in the Ventolin Evohaler® device) and placebo (administered in both Genuair® and Ventolin Evohaler®) administered all of them by means of […]. The washout period between each administration was at least 7 days.

[4] = test system: asthmatic and COPD patients; assay: Overall conclusion of the phase IIa studies in asthmatic and COPD patients; format: in vivo, human
Source text: as §3, §2

[5] = Measurement of the fine particle dose (FPD<5 μm, Anderson Cascade Impactor, Genuair inhaler); format: physicochemical
Experimental: The test on the aerodynamic assessment of the fine particles (FPD<5 μm) of the inhalation powder composition is carried out in combination with the Genuair® inhaler. The Fine Particle Fraction of abediterol free base was calculated on basis of the principles of the aerodynamic assessment of fine particles according to the Current European pharmacopoeia (Ph. Eur. Chapter 2.9.18) and USP <601> by the aid of aerodynamic impactor analyses using a modified Anderson Cascade Impactor (ACI), 60 L/min-configuration including pre-separator, stage −1, −0, and stage 1-7 (filter stage). The content of the active ingredient on each stage of the impactor is determined my means of HPLC.
The fine particle dose (FPD<5 μm) is calculated based on Ph. Eur. Chapter 2.9.18 and USP <601> by point to point interpolation per dosage. Linear point to point interpolation is done between the stages with a corresponding effective cut-off diameter which enclose the 5 μm mark.
To obtain the Fine Particle Dose, the cumulative percent value (y-value) at which the line of data plot crosses 5 μm mark is determined. […]
FPD [μg]=yFPD·F/100% • FPD=Fine particle dose<5 μm of the active ingredient per dosage [μg]. • yFPD=y-value of cumulative percentage of mass at a particle size of 5 μm evaluated by linear point to point interpolation [%]. • F=sum of mass on stage −1-stage 7 (filter) per dosage [μg].

[6] = nominal dose of 1.25 micrograms abediterol free base
[7] = nominal dose of 2.5 micrograms abediterol free base

In the case of O=c1ccc2c([C@@H](O)CNCCCCCCOCC(F)(F)c3ccccc3)ccc(O)c2[nH]1 [Abediterol, 5-(2-{[6-(2,2-difluoro-2-phenylethoxy)hexyl]amino}-1(R)-hydroxyethyl)-8-hydroxyquinolin-2(1H)-one], the “Delivered dose per dose” value [1, 6] is reported as “about 1.1 micrograms”, the “Delivered dose per dose” value [1, 7] is reported as “about 2.3 micrograms” and the “Tolerability (ECG, laboratory parameters, adverse events)” value ([2]; COPD patients, doses 0.625-10 micrograms, no dose-dependent effect) is reported as “well tolerated”. For the same molecule, the “Trough FEV1 compared with indacaterol 150 micrograms” value ([2]; doses of 2.5, 5 and 10 micrograms, statistically significant) was “greater trough FEV1”, the “Minimum therapeutic effective dose producing higher bronchodilatory effects when compared with indacaterol 150 micrograms” value ([2]; metered nominal dose, Genuair) was 2.5 micrograms and the “Change from baseline in morning pre-dose (trough) FEV1 at Day 2” value (from here on “Change from baseline in morning pre-dose”) ([2]; single inhaled dose 0.625 μg, Genuair, n = 67) was 66* ml. The “Change from baseline in morning pre-dose” value ([2]; single inhaled dose 2.5 μg, Genuair, n = 66) was 168** ml, the “Change from baseline in morning pre-dose” value ([2]; single inhaled dose 5 μg, Genuair) was 198** ml and the “Change from baseline in morning pre-dose” value ([2]; single inhaled dose 10 μg, Genuair) was 223*** ml. The “Tolerability (ECG, laboratory parameters, adverse events)” value ([3]; asthma patients, doses 0.313-2.5 micrograms, no dose-dependent effect) was “well tolerated”, the “Bronchodilatory effect compared with salbutamol” value ([3]; doses of 1.25 and 2.5 micrograms vs salbutamol 400 micrograms) was “increased bronchodilatory effect” and the “Time to peak FEV1 at day 1” value ([3]; post-dose, all abediterol doses (0.313-2.5 micrograms)) was at most 4 h. The “Change from baseline in peak FEV1 on Day 1” value (shortened to “Change … on Day 1”) ([3]; single inhaled dose 0.313 μg, Genuair, n = 60) was 477* ml, the “Change … on Day 1” value ([3]; single inhaled dose 0.625 μg, Genuair, n = 60) was 524* ml and the “Change … on Day 1” value ([3]; single inhaled dose 1.25 μg, Genuair, n = 60) was 573** ml. The “Change … on Day 1” value ([3]; single inhaled dose 2.5 μg, Genuair, n = 61) was 608*** ml, the “Duration of bronchodilation effect” value ([4]; all dose levels tested) was “more than 24 h” and the “Changes on safety outcomes (HR, QTcF, glucose and potassium)” value ([4]; all doses tested) was “no overall clinically relevant changes”. The “Minimum dose having similar therapeutic effect to salbutamol and indacaterol” value ([4]; metered nominal dose, Genuair) was 0.625 micrograms, the “Fine particle dose (FPD<5 μm) per dose” value [5, 6] was “about 0.45 micrograms” and the “Fine particle dose (FPD<5 μm) per dose” value [5, 7] was “about 1.0 micrograms”.

For CCc1cc2c(cc1CC)CC(NC[C@H](O)c1ccc(O)c3[nH]c(=O)ccc13)C2 [Indacaterol, reference compound], the “Change from baseline in morning pre-dose” value ([2]; 150 μg, Onbrez Breezhaler, n = 68) was 76* ml.

In the case of CC(C)(C)NCC(O)c1ccc(O)c(CO)c1 (centres unmarked) [Salbutamol, reference compound], the “Change … on Day 1” value ([3]; 400 μg (100 micrograms×4 puffs), Ventolin Evohaler, n = 58) is reported as 555** ml.
